Test results reported in patent publication US20240116951A1, “HETEROCYCLIC COMPOUNDS AND USES THEREOF” (Kumquat Biosciences Inc., priority 2022, published 2024).

What was measured:
Type in all cases: binding
[1] = molecular target: T1, KRAS G12D (Homo sapiens, UniProt P01116, G12D); assay: HTRF assay of K-Ras G12D interaction with SOS1 (PPI-HTRF); conditions: HTRF, 5 nM KRAS G12D; read-out: PPI-HTRF-5 nM KRAS G12D
T1 construct: made in house; host or cells: E. coli, e.g. BL21 (DE3)
Method in brief: (§1)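 Equilibrium binding between GST-K-Ras and His-tagged human SOS1 is measured by FRET from a europium anti-GST donor to an XL665 anti-His acceptor. Compounds are run in duplicate at 10, 2.5, 0.63, 0.16, 0.04 and 0.01 μM, and IC50 is calculated from the 665/620 nm ratio.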

[2] = molecular target: T2, KRAS G12S (Homo sapiens, UniProt P01116, G12S); assay: HTRF assay of K-Ras G12S interaction with SOS1 (PPI-HTRF); conditions: 5 nM KRAS G12S, read-out: PPI-HTRF-5 nM KRAS G12S
T2 construct: made in house; host or cells: E. coli, e.g. BL21 (DE3)
Method in brief: as §1

[3] = molecular target: T3, KRAS WT (Homo sapiens, UniProt P01116); assay: HTRF assay of wildtype K-Ras interaction with SOS1 (PPI-HTRF); conditions: HTRF, 5 nM KRAS WT; read-out: PPI-HTRF-5 nM KRAS WT
T3 construct: made in house; host or cells: E. coli, e.g. BL21 (DE3)
Method in brief: as §1

T2 sequence (P01116 1-188 isoform P01116-2 G12S): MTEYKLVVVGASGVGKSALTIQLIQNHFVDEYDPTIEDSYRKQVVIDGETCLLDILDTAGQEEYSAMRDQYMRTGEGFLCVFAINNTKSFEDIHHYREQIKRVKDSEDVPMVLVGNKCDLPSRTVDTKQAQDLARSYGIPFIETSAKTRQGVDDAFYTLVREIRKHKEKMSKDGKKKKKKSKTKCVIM
T3 sequence (P01116 1-188 isoform P01116-2): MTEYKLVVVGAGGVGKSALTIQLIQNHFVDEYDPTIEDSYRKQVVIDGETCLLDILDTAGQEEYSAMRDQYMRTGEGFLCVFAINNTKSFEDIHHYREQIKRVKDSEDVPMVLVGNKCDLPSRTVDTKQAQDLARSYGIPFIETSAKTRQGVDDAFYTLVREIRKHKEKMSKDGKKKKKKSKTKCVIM
T1 sequence (P01116 1-188 isoform P01116-2 G12D): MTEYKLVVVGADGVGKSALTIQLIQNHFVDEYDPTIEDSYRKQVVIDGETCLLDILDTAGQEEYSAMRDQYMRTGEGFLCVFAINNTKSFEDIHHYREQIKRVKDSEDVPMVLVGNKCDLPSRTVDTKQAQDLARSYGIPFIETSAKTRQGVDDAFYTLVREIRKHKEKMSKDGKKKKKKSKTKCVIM

IC50 [1]	IC50 [2]	IC50 [3]	Structure (SMILES)
< 5 µM	< 5 µM	< 5 µM	N#Cc1c(N)sc2c(F)ccc(-c3c(Cl)cc4c(N5CCC6(CCN6C(=O)n6nccn6)C5)nc(OC[C@@]56CCCN5C[C@H](F)C6)nc4c3F)c12 (stereo partly drawn) [Compound 300, 4-(4-(1-(2H-1,2,3-triazole-2-carbonyl)-1,6-diazaspiro[3.4]octan-6-yl)-6-chloro-8-fluoro-2-(((2R,7aS)-2-fluorotetrahydro-1H-pyrrolizin-7a(5H)-yl)methoxy)quinazolin-7-yl)-2-amino-7-fluorobenzo[b]thiophene-3-carbonitrile]
< 5 µM	> 5 µM	< 5 µM	Nc1nc2c(-c3c(Cl)cc4c(N5CCC6(CCN6)CC5)nc(OC[C@@]56CCCN5C[C@H](F)C6)nc4c3F)ccc(F)c2s1 [Compound 265, 4-(6-chloro-8-fluoro-2-(((2R,7aS)-2-fluorotetrahydro-1H-pyrrolizin-7a(5H)-yl)methoxy)-4-(1,7-diazaspiro[3.5]nonan-7-yl)quinazolin-7-yl)-7-fluorobenzo[d]thiazol-2-amine]
< 5 µM	< 5 µM	< 5 µM	CCc1ncn(C(=O)N2CCC23CCN(c2nc(OC[C@@]45CCCN4C[C@H](F)C5)nc4c(F)c(-c5ccc(F)c6sc(N)c(C#N)c56)c(Cl)cc24)C3)n1 (stereo partly drawn) [Compound 314, 2-amino-4-(6-chloro-4-(1-(3-ethyl-1H-1,2,4-triazole-1-carbonyl)-1,6-diazaspiro[3.4]octan-6-yl)-8-fluoro-2-(((2R,7aS)-2-fluorotetrahydro-1H-pyrrolizin-7a(5H)-yl)methoxy)quinazolin-7-yl)-7-fluorobenzo[b]thiophene-3-carbonitrile]
< 5 µM	< 5 µM	< 5 µM	N#Cc1c(N)sc2c(F)ccc(-c3c(Cl)cc4c(N5CCC6(CCN6C(=O)n6cnc(Cl)n6)C5)nc(OC[C@@]56CCCN5C[C@H](F)C6)nc4c3F)c12 (stereo partly drawn) [Compound 312, 2-amino-4-(6-chloro-4-(1-(3-chloro-1H-1,2,4-triazole-1-carbonyl)-1,6-diazaspiro[3.4]octan-6-yl)-8-fluoro-2-(((2R,7aS)-2-fluorotetrahydro-1H-pyrrolizin-7a(5H)-yl)methoxy)quinazolin-7-yl)-7-fluorobenzo[b]thiophene-3-carbonitrile]
< 5 µM	< 5 µM	< 5 µM	C[C@H](Oc1nc(N2CCC3(CCN3)C2)c2cc(Cl)c(-c3ccc(F)c4sc(N)c(C#N)c34)c(F)c2n1)[C@@H]1CCCN1C (stereo partly drawn) [Compound 213, 2-amino-4-(6-chloro-8-fluoro-2-((S)-1-((S)-1-methylpyrrolidin-2-yl)ethoxy)-4-(1,6-diazaspiro[3.4]octan-6-yl)quinazolin-7-yl)-7-fluorobenzo[b]thiophene-3-carbonitrile]
< 5 µM	< 5 µM	< 5 µM	N#Cc1cnn(C(=O)N2CCC23CCN(c2nc(OC[C@@]45CCCN4C[C@H](F)C5)nc4c(F)c(-c5ccc(F)c6sc(N)c(C#N)c56)c(Cl)cc24)C3)c1 (stereo partly drawn) [Compound 309, 1-(6-(7-(2-amino-3-cyano-7-fluorobenzo[b]thiophen-4-yl)-6-chloro-8-fluoro-2-(((2R,7aS)-2-fluorotetrahydro-1H-pyrrolizin-7a(5H)-yl)methoxy)quinazolin-4-yl)-1,6-diazaspiro[3.4]octane-1-carbonyl)-1H-pyrazole-4-carbonitrile]
< 5 µM	< 5 µM	< 5 µM	CN1CCC[C@H]1COc1nc(N2CCC3(CCN3C(=O)n3cncn3)C2)c2cc(Cl)c(-c3ccc(F)c4sc(N)c(C#N)c34)c(F)c2n1 (stereo partly drawn) [Compound 319, 4-(4-(1-(1H-1,2,4-triazole-1-carbonyl)-1,6-diazaspiro[3.4]octan-6-yl)-6-chloro-8-fluoro-2-(((S)-1-methylpyrrolidin-2-yl)methoxy)quinazolin-7-yl)-2-amino-7-fluorobenzo[b]thiophene-3-carbonitrile]
< 5 µM	< 5 µM	< 5 µM	N#CCC1CN(c2nc(OC[C@@]34CCCN3C[C@H](F)C4)nc3c(F)c(-c4ccc(F)c5sc(N)c(C#N)c45)c(Cl)cc23)CC12CCN2C(=O)n1cnc(Cl)n1 (stereo partly drawn) [Compound 328, 2-amino-4-(6-chloro-4-(1-(3-chloro-1H-1,2,4-triazole-1-carbonyl)-8-(cyanomethyl)-1,6-diazaspiro[3.4]octan-6-yl)-8-fluoro-2-(((2R,7aS)-2-fluorotetrahydro-1H-pyrrolizin-7a(5H)-yl)methoxy)quinazolin-7-yl)-7-fluorobenzo[b]thiophene-3-carbonitrile]
< 5 µM	< 5 µM	< 5 µM	N#Cc1c(N)sc2c(F)ccc(-c3c(Cl)cc4c(N5CC[C@@]6(CCN6C(=O)n6cnc(CCl)n6)C5)nc(OC[C@@]56CCCN5C[C@H](F)C6)nc4c3F)c12 [Compound 322, 2-amino-4-(6-chloro-4-((R)-1-(3-(chloromethyl)-1H-1,2,4-triazole-1-carbonyl)-1,6-diazaspiro[3.4]octan-6-yl)-8-fluoro-2-(((2R,7aS)-2-fluorotetrahydro-1H-pyrrolizin-7a(5H)-yl)methoxy)quinazolin-7-yl)-7-fluorobenzo[b]thiophene-3-carbonitrile]
> 5 µM	< 5 µM	> 5 µM	C#Cc1c(F)ccc2cc(O)cc(-c3ncc4c(N5CCC6(CCN6C(=O)n6cncn6)C5)nc(O[C@@H](C)[C@@H]5CCCN5C)nc4c3F)c12 (stereo partly drawn) [Compound 256, (6-(7-(8-ethynyl-7-fluoro-3-hydroxynaphthalen-1-yl)-8-fluoro-2-((S)-1-((S)-1-methylpyrrolidin-2-yl)ethoxy)pyrido[4,3-d]pyrimidin-4-yl)-1,6-diazaspiro[3.4]octan-1-yl)(1H-1,2,4-triazol-1-yl)methanone]
< 5 µM	< 5 µM	< 5 µM	N#Cc1c(N)sc2c(F)ccc(-c3c(Cl)cc4c(N5CCC6(CCN6C(=O)n6cncn6)C5)nc(OC[C@@]56CCCN5C[C@H](F)C6)nc4c3F)c12 (stereo partly drawn) [Compound 221, (4R)-4-(4-(1-(1H-1,2,4-triazole-1-carbonyl)-1,6-diazaspiro[3.4]octan-6-yl)-6-chloro-8-fluoro-2-(((2R,7aS)-2-fluorotetrahydro-1H-pyrrolizin-7a(5H)-yl)methoxy)quinazolin-7-yl)-2-amino-7-fluorobenzo[b]thiophene-3-carbonitrile]
< 5 µM	< 5 µM	< 5 µM	N#Cc1c(N)sc2c(F)ccc(-c3c(Cl)cc4c(N5CCC6(CCN6C(=O)n6cnc(C(F)F)n6)C5)nc(OC[C@@]56CCCN5C[C@H](F)C6)nc4c3F)c12 (stereo partly drawn) [Compound 215, 2-amino-4-(6-chloro-4-(1-(3-(difluoromethyl)-1H-1,2,4-triazole-1-carbonyl)-1,6-diazaspiro[3.4]octan-6-yl)-8-fluoro-2-(((2R,7aS)-2-fluorotetrahydro-1H-pyrrolizin-7a(5H)-yl)methoxy)quinazolin-7-yl)-7-fluorobenzo[b]thiophene-3-carbonitrile]
< 5 µM	< 5 µM	< 5 µM	N#Cc1c(N)sc2c(F)ccc(-c3c(Cl)cc4c(N5CC[C@]6(CCN6)C5)nc(OC[C@@]56CCCN5C[C@H](F)C6)nc4c3F)c12 [Compound 285, 2-amino-4-(6-chloro-8-fluoro-2-(((2R,7aS)-2-fluorotetrahydro-1H-pyrrolizin-7a(5H)-yl)methoxy)-4-((R)-1,6-diazaspiro[3.4]octan-6-yl)quinazolin-7-yl)-7-fluorobenzo[b]thiophene-3-carbonitrile]
